Holding throughout (type): cell-based
Test [1] concerns the target T1, α1β3γ2L GABAARs (Homo sapiens, UniProt P14867+P18507+P28472).
T1 construct: gene GABRA1; full-length wild-type subunits co-transfected 1:1:1 (plasmid ratio) in HEK293T cells; EGFP from a separate EF1a promoter on the GABRG2 plasmid; with Gamma-aminobutyric acid receptor subunit gamma-2
Briefly: whole-cell patch clamp, potentiation of GABA-induced current. For orientation: Patch clamp records ionic current or voltage across a cell membrane.

The target of test [2] is T1, α1β3γ2L GABAARs. Briefly: whole-cell patch clamp, inhibition of GABA-induced current. Particulars: -50 mV, pH 7.4, 22-25 °C.
Test [3] concerns the target T1, α1β3γ2L GABAARs. The description is as above. Particulars: -50 mV, pH 7.4, 22-25 °C. This is another data set of the same source.
In test [4] the target is T1, α1β3γ2L GABAARs. The description is as above. Particulars: 100 μM compound, 1 μM GABA, 15 s pre-treatment, -50 mV, pH 7.4, 22-25 °C.

Molecules are shown by their SMILES.

The results in this text go back to article PMC11153716 (Frontiers in Pharmacology, 2024).

T1 sequence (P14867 28-456): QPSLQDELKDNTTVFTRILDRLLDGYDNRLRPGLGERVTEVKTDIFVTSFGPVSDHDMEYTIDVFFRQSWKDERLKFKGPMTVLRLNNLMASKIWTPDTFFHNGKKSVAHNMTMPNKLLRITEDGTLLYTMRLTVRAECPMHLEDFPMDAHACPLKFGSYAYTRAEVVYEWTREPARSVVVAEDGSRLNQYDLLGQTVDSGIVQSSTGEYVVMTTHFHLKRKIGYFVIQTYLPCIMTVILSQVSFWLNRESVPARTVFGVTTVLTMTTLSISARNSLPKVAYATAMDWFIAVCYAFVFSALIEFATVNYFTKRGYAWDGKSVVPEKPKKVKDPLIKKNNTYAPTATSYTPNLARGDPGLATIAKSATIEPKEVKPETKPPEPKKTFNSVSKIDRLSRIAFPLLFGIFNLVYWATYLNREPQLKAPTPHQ
T1 sequence (P28472 26-473): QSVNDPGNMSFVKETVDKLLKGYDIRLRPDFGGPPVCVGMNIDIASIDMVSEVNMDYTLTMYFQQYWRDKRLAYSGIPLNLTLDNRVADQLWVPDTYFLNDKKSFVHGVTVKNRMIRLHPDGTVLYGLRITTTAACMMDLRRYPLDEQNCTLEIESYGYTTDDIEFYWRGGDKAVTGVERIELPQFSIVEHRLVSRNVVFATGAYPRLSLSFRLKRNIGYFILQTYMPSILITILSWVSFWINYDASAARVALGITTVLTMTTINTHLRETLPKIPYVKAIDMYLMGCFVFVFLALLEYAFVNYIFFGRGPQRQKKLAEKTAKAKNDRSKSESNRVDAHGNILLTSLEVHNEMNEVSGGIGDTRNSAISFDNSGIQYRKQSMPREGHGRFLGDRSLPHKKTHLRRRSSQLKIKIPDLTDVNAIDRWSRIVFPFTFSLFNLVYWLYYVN
T1 sequence (P18507 40-475): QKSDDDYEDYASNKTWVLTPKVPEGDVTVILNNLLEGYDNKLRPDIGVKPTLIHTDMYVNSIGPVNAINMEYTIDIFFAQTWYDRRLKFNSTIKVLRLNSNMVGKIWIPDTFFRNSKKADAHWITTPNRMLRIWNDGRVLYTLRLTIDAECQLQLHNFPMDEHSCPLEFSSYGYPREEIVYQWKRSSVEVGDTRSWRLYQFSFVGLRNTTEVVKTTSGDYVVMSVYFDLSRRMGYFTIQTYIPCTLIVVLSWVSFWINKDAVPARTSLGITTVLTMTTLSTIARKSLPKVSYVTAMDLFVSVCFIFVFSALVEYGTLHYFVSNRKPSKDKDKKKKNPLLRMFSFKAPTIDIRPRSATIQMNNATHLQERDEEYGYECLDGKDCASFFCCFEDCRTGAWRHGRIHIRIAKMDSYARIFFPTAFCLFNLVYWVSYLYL

For the molecule `C=C1CC/C=C(\C)CC[C@@H]2[C@@H]1CC2(C)C` [β-Caryophyllene], the EC50 on α1β3γ2L GABAARs [1] came out at 46.9 ± 6.33 µM.

As to `Cc1ccc([C@]2(C)CCCC2(C)C)cc1` [(+)-Cuparene], the EC50 on α1β3γ2L GABAARs [1] was 15.1 ± 5.94 µM. For `O=C1c2c(O)cc(O)cc2O[C@H](c2cc(O)c(O)c(O)c2)[C@H]1O` [Dihydromyricetin], the “I/I0 at 100 μM” value on α1β3γ2L GABAARs [2] stood at 0.63 ± 0.04. With `CCOC1O[C@H](CO)[C@@H](O)[C@H](O)[C@H]1O` (stereo partly shown) [Ethyl glucoside], at α1β3γ2L GABAARs [1], the EC50 stood at 37 ± 8.56 µM. In the case of `O=C(O)[C@H](O)Cc1ccc(O)c(O)c1` [Danshensu], the “I/I0 at 300 μM” value at α1β3γ2L GABAARs [3] came out at 0.89 ± 0.02. Consider `O=c1c(O)c(-c2ccc(O)cc2)oc2cc(O)cc(O)c12` [Kaempferol], for which, on α1β3γ2L GABAARs [4], the “whole-cell patch clamp, inhibition of GABA-induced current” value was “kaempferol and corydaldine suppressed the GABA-induced current by more than half”.

For the molecule `COc1cc2c(cc1OC)C(=O)NCC2` [Corydaldine], the “whole-cell patch clamp, inhibition of GABA-induced current” value at α1β3γ2L GABAARs [4] was “kaempferol and corydaldine suppressed the GABA-induced current by more than half”.

What is called EC50 is the concentration giving half of the maximal effect.
